# According to patent US12215354B2, “Differentiation of human embryonic stem cells into single hormonal insulin positive cells” (Janssen Biotech, Inc., priority 2011, dated 2025):
# Tested on: human embryonic stem cell line H1
# Assay: Immune staining for insulin, glucagon and somatostatin hormones at end of stage 5 (Example 11)
# Assay type: cell-based
# Conditions: percentage of the entire hormone count, 0.25 mM ascorbic acid
# Method: Cells of the human embryonic stem cell line H1 at various passages (passage 40 to passage 52) were seeded as single cells at a density of 100,000 cells/cm^2 on MATRIGEL™ (1:30 dilution) coated dishes in mTesr™1 media and 10 μM of Y27632. Forty eight hours post seeding, cultures were differentiated into pancreatic endocrine lineage as follows: • a. Stage 1 (Definitive Endoderm (DE)−3 days): Prior to start of DE, the cultures were washed and incubated with incomplete PBS (no Mg or Ca) for 30 seconds followed by addition of the stage 1 media. Human embryonic stem cells cultured as single cells on MATRIGEL™-coated dishes were treated with MCDB-131 medium supplemented with 0.1% fatty acid-free BSA, 0.0012 g/ml sodium bicarbonate, 1× GLUTAMAX™, 5 mM D-Glucose, 100 ng/ml GDF8, and 1 μM MCX compound (GSK3B inhibitor) for one day. Cells were then treated with MCDB-131 medium supplemented with 0.1% fatty acid-free BSA, 0.0012 g/ml sodium bicarbonate, 1× GLUTAMAX™, 5 mM glucose, 100 ng/ml GDF8, and 100 nM MCX compound for day two, followed by an additional day in MCDB-131 medium supplemented with 0.1% fatty acid-free BSA, 0.0012 g/ml sodium bicarbonate, 1× GLUTAMAX™, 5 mM Glucose, and 100 ng/ml GDF8. • b. Stage 2 (Primitive gut tube−2 days): Stage 1 cells were treated with MCDB-131 medium supplemented with 0.1% fatty acid-free BSA, 0.0012 g/ml sodium bicarbonate, 1× GLUTAMAX™, 5 mM D-Glucose, and 25 ng/ml FGF7 for two days. • c. Stage 3 (Foregut−2 days): Stage 2 cells were treated with MCDB-131 medium supplemented with 1:200 dilution of ITS-X, 2.5 mM Glucose, 1× GLUTAMAX™, 0.0015 g/ml sodium bicarbonate, 2% fatty acid-free BSA, 10 ng/ml Activin A, 25 ng/ml FGF7, 0.25 μM SANT-1, 1 μM RA, 200 nM TPB (PKC activator), 100 nM LDN-193189 (BMP receptor inhibitor) for one day. Cells were then treated with MCDB-131 medium supplemented with 1:200 dilution of ITS-X, 2.5 mM Glucose, 1× GLUTAMAX™, 0.0015 g/ml sodium bicarbonate, 2% fatty acid-free BSA, 10 ng/ml Activin A, 25 ng/ml FGF7, 0.25 μM SANT-1, 1 μM RA, 200 nM TPB (PKC activator), 10 nM LDN-193189 for an additional day. […]
smiles,measurement,value
O=C1O[C@H]([C@@H](O)CO)C(O)=C1O [ascorbic acid],% Polyhormonal,36%
same,% glucagon + plus % somatostatin+,44%
same,% single hormonal Insulin+,55%
